Source: article PMC12390941, “Ubiquitin-specific protease 7-mediated stabilization of discoidin domain receptor 1 drives progression of TP53-Mutant cancers” (The Journal of Biological Chemistry, 2025)
Where two headings read alike, the source gives them in different places.

Key:
[1] = target: USP11 (Homo sapiens, UniProt P51784); experiment: selectivity panel of […] purified DUBs, ubiquitin-AMC substrate; ABPP DUBome; assay type: biochemical
[2] = target: USP7 (Homo sapiens, UniProt Q93009); experiment: biochemical
Sequence of USP7 (Q93009 whole entry): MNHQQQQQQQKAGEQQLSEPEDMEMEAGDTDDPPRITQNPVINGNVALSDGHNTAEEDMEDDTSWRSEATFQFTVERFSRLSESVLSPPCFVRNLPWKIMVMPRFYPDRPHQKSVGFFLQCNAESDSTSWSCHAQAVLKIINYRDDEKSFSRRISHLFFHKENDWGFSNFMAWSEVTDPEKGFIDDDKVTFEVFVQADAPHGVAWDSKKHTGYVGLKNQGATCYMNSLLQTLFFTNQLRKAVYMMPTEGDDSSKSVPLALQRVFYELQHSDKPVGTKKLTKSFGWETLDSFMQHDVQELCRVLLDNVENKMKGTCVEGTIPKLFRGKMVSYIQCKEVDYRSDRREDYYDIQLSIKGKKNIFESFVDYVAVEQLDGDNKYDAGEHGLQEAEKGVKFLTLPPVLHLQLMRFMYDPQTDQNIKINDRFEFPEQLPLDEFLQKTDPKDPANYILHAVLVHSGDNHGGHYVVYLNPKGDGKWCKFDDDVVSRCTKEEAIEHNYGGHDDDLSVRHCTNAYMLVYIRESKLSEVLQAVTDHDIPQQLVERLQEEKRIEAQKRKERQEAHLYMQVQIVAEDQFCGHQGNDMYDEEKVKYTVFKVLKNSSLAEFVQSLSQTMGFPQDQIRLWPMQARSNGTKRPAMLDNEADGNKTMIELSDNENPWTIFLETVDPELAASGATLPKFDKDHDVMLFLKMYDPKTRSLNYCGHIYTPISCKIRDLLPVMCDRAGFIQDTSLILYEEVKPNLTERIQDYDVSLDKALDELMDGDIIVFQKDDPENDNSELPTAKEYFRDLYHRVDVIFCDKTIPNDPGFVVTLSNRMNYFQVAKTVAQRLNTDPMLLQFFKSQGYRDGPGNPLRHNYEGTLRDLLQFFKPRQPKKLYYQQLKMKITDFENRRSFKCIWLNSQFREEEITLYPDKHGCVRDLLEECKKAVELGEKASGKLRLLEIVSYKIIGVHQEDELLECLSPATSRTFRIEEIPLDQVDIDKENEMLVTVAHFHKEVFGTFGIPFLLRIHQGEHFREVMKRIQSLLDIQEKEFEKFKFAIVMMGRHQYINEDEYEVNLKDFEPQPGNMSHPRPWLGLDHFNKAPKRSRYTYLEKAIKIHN

[3] = target: T1, USP1 (Homo sapiens, UniProt O94782); experiment: selectivity panel of […] purified DUBs, ubiquitin-AMC substrate; ABPP DUBome; assay type: biochemical
T1 sequence (O94782 1-785): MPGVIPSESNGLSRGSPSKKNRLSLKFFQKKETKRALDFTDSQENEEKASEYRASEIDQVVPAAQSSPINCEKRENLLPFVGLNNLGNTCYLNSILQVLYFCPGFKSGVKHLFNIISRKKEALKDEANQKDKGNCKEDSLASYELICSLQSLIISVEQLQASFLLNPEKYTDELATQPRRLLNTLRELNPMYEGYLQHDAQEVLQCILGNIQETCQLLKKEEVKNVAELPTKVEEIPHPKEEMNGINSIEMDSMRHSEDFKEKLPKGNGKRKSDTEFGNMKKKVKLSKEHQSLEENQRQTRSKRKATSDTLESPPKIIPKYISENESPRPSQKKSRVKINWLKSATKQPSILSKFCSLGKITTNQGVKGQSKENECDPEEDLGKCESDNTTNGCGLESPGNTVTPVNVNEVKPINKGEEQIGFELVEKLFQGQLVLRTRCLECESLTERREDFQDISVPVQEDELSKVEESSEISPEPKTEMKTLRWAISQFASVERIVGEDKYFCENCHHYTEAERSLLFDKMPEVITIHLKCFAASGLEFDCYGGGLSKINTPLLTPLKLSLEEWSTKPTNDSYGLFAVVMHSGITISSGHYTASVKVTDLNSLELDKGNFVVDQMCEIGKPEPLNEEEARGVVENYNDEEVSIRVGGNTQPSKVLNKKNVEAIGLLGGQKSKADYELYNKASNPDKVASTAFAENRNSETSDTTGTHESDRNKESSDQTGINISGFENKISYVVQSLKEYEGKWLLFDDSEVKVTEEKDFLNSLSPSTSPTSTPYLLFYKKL

[4] = target: USP2 (Homo sapiens, UniProt O75604); experiment: selectivity panel of […] purified DUBs, ubiquitin-AMC substrate; assay type: biochemical
Sequence of USP2 (O75604 whole entry): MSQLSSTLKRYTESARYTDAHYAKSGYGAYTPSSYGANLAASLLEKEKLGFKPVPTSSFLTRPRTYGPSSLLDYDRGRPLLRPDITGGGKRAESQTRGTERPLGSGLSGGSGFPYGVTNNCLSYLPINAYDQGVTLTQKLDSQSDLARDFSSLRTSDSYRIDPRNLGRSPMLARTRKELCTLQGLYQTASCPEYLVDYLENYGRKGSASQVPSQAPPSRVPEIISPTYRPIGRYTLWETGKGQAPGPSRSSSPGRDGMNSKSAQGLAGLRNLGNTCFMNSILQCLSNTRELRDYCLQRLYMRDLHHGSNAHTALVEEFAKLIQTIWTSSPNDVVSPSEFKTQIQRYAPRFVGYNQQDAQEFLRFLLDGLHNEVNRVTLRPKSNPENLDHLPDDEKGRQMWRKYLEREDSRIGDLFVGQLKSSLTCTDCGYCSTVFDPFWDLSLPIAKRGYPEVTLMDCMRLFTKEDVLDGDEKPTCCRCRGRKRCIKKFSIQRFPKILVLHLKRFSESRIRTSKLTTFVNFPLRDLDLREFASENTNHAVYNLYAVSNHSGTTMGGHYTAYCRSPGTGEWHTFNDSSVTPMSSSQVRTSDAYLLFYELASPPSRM

Sequence of USP11 (P51784 whole entry): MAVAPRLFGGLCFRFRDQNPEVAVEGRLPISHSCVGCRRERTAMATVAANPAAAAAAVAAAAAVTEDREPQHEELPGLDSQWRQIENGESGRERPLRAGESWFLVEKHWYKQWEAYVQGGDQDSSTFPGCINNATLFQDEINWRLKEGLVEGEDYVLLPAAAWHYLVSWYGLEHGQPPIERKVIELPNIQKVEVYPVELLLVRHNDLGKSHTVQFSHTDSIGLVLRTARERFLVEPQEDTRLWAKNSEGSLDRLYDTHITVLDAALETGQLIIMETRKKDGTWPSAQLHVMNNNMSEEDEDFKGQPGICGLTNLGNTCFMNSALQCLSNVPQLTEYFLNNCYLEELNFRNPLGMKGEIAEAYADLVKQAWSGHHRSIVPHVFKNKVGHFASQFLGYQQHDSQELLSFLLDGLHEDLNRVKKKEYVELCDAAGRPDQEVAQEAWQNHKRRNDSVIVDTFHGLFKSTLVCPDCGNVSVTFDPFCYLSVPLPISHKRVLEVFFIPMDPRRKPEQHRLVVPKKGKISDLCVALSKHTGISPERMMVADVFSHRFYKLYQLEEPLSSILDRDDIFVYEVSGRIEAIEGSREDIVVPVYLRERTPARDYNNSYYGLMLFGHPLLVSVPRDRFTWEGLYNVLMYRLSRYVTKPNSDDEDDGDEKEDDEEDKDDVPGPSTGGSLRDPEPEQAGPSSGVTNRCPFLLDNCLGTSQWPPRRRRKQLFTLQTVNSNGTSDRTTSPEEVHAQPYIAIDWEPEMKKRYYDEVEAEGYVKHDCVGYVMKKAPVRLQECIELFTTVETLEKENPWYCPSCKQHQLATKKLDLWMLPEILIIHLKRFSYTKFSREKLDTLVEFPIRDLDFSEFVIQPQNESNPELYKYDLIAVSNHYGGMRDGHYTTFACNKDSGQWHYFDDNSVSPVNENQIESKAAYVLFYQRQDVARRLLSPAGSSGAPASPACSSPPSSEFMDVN

Compound	selectivity panel of 41 purified DUBs, ubiquitin-AMC substrate; ABPP DUBome [1]	IC50 ([2]; read-out: IC50) [nM]	selectivity panel of 41 purified DUBs, ubiquitin-AMC substrate; ABPP DUBome [3]	selectivity panel of 41 purified DUBs, ubiquitin-AMC substrate [4]	IC50 [2] [nM]
Cc1ccc(/C=C2\CNC/C(=C\c3ccc(C)cc3)C2=O)cc1 [NSC632839]	This screening identified USP7, USP11, USP2, and USP1 as the key targets.	3820	This screening identified USP7, USP11, USP2, and USP1 as the key targets.	This screening identified USP7, USP11, USP2, and USP1 as the key targets.	
O=C(C[C@@H](C(F)F)n1ccc(F)n1)N1CCC(O)(Cn2cnc3c(cnn3-c3ccc(F)cc3)c2=O)CC1 [FT671]					286
